The IC50 is the point on the concentration scale where inhibition reaches its midpoint. As usually defined, the EC50 is the concentration that produces a half-maximal response. Read a high EC50 as weaker potency.

These results are taken from patent US20060292639A1, “Splice variant of the vanilloid receptor VR1A” (Adolor Corporation, priority 2004, published 2006).

Assay [1] deals with T1, human DRG VR1 (Homo sapiens, UniProt Q8NER1, I585V/K332R/M315I).
T1 construct: The two primers were designed to amplify the entire coding region; expressed in transfected cells; CHO is stated only for the VR1A construct
T1 sequence (Q8NER1 whole entry M315I/K332R/I585V): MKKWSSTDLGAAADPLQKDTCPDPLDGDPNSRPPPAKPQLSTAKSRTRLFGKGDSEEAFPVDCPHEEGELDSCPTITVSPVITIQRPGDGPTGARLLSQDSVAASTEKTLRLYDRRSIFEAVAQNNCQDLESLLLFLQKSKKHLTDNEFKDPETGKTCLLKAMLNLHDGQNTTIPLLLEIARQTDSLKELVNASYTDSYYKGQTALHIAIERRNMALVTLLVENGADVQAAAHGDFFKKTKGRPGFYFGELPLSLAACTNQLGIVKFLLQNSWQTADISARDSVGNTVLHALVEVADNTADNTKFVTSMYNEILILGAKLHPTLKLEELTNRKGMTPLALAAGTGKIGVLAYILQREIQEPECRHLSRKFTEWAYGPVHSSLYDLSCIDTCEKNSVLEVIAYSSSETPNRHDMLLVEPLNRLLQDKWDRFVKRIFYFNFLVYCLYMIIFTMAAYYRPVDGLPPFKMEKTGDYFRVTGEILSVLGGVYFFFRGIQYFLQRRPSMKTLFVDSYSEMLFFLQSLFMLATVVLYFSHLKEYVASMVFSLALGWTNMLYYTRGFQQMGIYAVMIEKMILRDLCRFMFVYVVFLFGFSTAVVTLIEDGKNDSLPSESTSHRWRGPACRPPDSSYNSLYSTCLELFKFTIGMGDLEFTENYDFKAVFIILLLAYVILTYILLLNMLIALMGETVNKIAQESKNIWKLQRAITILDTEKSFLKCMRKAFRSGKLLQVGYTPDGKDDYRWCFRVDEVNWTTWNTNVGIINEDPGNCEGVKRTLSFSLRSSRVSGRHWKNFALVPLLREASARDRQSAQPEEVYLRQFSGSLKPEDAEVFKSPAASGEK
The experiment in a line: Ca2+ influx assay, stable cell line expressing VR1. The class given is cell-based. The note with it: for IC50: VR1 stable cell line, N=4, read-out: IC50 Capsazepine. As for the experimental part: (§1) B. Generation of a stable cell line: The VR1A construct was transfected into 80-90% confluent cultures of CHO cells grown in F12 media containing 10% fetal bovine serum (Hyclone Laboratories). After 48 hours, cells were transferred to selection medium (growth medium containing 1 mg/ml of G418) and 15 days later individual G418 resistant foci were isolated and expanded. In order to identify a functional cell line, the expanded cells were plated in a 96 well plate and grown to confluency. […] Functional clones were retested, expanded and cryopreserved.
(§2) C. Calcium influx assay: The stable cell lines, expressing human DRG VR1 and human pancreas VR1A, were seeded the day before the assay at 40,000 cells/well density in 96 well black clear bottom assay plates (Corning Inc., Corning, N.Y.). On the day of the assay, the medium of cell plates was changed to 0.2 ml of 1× Hanks' balanced salt solution (Invitrogen, Carlsbad, Calif.) containing 20 mM HEPES, pH 7.4, 1.3 mM freshly made probenecid and 3 μM Fluo-3AM (Molecular Devices, Sunnyvale, Calif.). The cell plates were incubated at 37° C. for one hour and left at room temperature for 30 minutes. Serial dilutions of agonist compounds, starting at 100 μM, were set up in 96 well plates and subsequently used for the analysis. Both plates were loaded to the FlexStation in order to run the assay. The excitation wavelength was 485 nM and the emission wavelength was 583 nM.

The target of assay [2] is T2, human pancreas VR1A (Homo sapiens, UniProt Q8NER1, I585V/M315I/M552V).
T2 construct: VR1A codes for a VR1-like protein, 837 amino acids long, with 148 unique residues at the N-terminal end; expressed in transfected cells; host or cells: CHO
T2 sequence (Q8NER1 1-837 isoform Q8NER1-3 M313I/M550V/I583V): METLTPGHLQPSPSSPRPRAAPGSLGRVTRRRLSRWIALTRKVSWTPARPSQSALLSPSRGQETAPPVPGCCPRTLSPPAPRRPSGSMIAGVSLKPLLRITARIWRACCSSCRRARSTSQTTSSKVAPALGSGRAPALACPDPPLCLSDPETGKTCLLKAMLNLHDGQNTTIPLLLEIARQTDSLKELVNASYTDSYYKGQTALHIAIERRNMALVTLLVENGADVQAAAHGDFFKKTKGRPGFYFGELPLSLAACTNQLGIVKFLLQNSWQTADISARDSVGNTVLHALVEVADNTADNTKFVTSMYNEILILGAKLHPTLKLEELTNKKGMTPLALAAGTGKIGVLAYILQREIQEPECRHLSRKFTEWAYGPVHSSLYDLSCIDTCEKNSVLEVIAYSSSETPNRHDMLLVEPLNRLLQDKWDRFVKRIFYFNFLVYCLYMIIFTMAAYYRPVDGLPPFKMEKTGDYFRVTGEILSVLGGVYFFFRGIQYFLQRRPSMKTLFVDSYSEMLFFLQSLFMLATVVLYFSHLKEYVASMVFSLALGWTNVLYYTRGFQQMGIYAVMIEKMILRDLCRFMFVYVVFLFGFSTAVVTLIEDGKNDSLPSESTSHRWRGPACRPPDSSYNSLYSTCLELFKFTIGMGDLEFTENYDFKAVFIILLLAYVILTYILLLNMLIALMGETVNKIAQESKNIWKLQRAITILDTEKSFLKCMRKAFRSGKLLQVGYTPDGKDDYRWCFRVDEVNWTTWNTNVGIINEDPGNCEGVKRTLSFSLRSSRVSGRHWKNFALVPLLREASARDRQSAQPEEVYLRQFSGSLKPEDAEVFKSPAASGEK
The experiment in a line: Ca2+ influx assay, stable cell line expressing VR1A. The class given is cell-based. As for the experimental part:
as §1, §2

Like-named read-outs stand apart in the source and are kept apart here.

Take `Oc1cc2c(cc1O)CN(C(=S)NCCc1ccc(Cl)cc1)CCC2` [Capsazepine, capsazepine]: the half-inhibitory concentration (IC50) in assay [1] (E-capsaicin as agonist) amounted to 194 ± 0.06 nM; in assay [1] (RTX as agonist), 140 ± 0.8 nM; in assay [2] (IC50 Capsazepine, VR1A stable cell line, RTX as agonist, N=4), 25 ± 0.26 nM; in assay [2] (read-out: IC50 Capsazepine), 60 ± 0.1 nM. The “fold lower IC50 value with RTX as an agonist compared to capsaicin as an agonist” value in assay [2] (text does not say whether VR1 or VR1A is meant) is listed as “approximately 5 fold”.
In the case of `C=C(C)[C@]12C[C@@H](C)[C@@]34O[C@](Cc5ccccc5)(O[C@@H]1[C@@H]3C=C(COC(=O)Cc1ccc(O)c(OC)c1)C[C@]1(O)C(=O)C(C)=C[C@@H]41)O2` [RTX, resiniferatoxin], the half-maximal effective concentration (EC50) was found to be 1.6 ± 0.17 nM in assay [1] and 5 ± 0.08 nM in assay [2].
